Measured values published in patent US20250326772A1, “MRGPRX2 ANTAGONISTS, PHARMACEUTICAL COMPOSITION INCLUDING MRGPRX2 ANTAGONIST, AND METHOD OF TREATING MRGPRX2-MEDIATED DISEASE OR DISORDER” (KYORIN PHARMACEUTICAL CO., LTD., priority 2024, published 2025).
pIC50: −log10 of the molar value.

These compounds were tested against T1, MRGPRX2 (Homo sapiens, UniProt Q96LB1) (assay: MRGPRX2 reporter cell assay (NFAT-RE luciferase, Substance P stimulation)). Conditions: U2OS cells stably transfected with MRGPRX2 and NFAT-RE luciferase reporter; Substance P at EC80.
T1 sequence (Q96LB1 1-330): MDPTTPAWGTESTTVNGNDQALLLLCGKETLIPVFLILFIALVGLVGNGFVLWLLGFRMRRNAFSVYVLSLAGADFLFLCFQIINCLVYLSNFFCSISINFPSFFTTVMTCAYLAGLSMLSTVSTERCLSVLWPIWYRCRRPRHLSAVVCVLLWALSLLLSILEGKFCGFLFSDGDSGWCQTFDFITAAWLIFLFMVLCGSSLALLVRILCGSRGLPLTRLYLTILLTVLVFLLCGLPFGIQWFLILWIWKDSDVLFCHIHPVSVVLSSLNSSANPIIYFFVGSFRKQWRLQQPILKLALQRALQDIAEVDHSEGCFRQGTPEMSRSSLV
Type: cell-based
Method: MRGPRX2 Reporter Cell Assays U2OS cells (ATCC, Manassas, VA) were stably transfected with MRGPRX2 expression clones (GeneCopoeia, Rockville, MD) and the pGL4.30 [luc2P/NFAT-RE/Hygro] reporter plasmid (Promega, Madison, WI). Clonal cells were maintained in Growth Media (McCoy's 5A, 10% FBS, 495 μg/ml hygromycin, 2 μg/ml puromycin, 100 units/ml penicillin, and 100 ug/ml streptomycin). The day before assay, cells were plated to white 384-well microplates at 3000 (MRGPRX2) cells/well in 10 ul Assay Media (McCoy's 5A, 2% charcoal dextran stripped FBS, 100 units/ml penicillin, and 100 ug/ml streptomycin) (Gibco, Thermo Fisher) and allowed to adhere overnight. The following day, serially diluted compound stocks were added directly to the cells (final DMSO concentration of 0.5%) and pre-incubated for 30 minutes at 37° C., 5% CO2. The final concentration of Substance P (Tocris, Minneapolis, MN, or PEPTIDE INSTITUTE, Osaka, Japan) corresponding to EC80 was added to stimulate the (MRGPRX2) cells. Cells were returned to the incubator for 6 hrs, after which 5 ul of ONE-GLO substrate (Promega) was added. Luminescence was read within 15 minutes (BioTek, Winooski, VT or infinite M1000Pro, Tecan Japan, Kanagawa, Japan). Percent inhibition for each test compound was calculated using the formula: […] where: • A=the luminescence count of the “test compound” well • B=the median luminescence count of the “Vehicle (0.5% DMSO)” wells • C═the median luminescence count of the “Vehicle (0.5% DMSO)+5 uM of substance P” wells The mean percent inhibition of each concentration of “test compound” was used to generate dose-response curves. IC50 values were calculated using a four-parameter logistic fit to the data using GraphPad Prism software. • +++: […]

Row | pIC50 | SMILES
1 | 8.72 | COC(=O)N[C@]1(C)COc2c(-c3[nH]c4ncccc4c3-c3cccnc3OC(F)F)c(C(F)F)nn2C1 [EX. 492]
2 | 8.49 | COC(=O)N[C@@H]1COc2c(-c3[nH]c4ncccc4c3-c3cn(C)nc3C#N)c(C(F)F)nn2C1 [EX. 517]
3 | 8.44 | CCc1nn2c(c1-c1[nH]c3ncccc3c1-c1cn(C)nc1OC(F)F)OC[C@@H](NC(=O)OC)C2 [EX. 572]
4 | 8.59 | Cn1cc(-c2c(-c3c(C(F)F)nn4c3OC[C@@H](F)C4)[nH]c3ncccc23)c(C#N)n1 [EX. 449]
5 | 8.39 | CO[C@]1(C)COc2c(-c3[nH]c4ncccc4c3-c3cn(C)nc3OC(F)F)c(C(F)F)nn2C1 [EX. 435]
6 | 8.64 | CO[C@@H]1COc2c(-c3[nH]c4ncccc4c3-c3cn(C)nc3OC(F)F)c(C(F)F)nn2C1 [EX. 531]

Same assay, conditions: U2OS cells stably transfected with MRGPRX2 and NFAT-RE luciferase reporter; Substance P at EC80; class symbols

Row | pIC50 | SMILES
7 | > 8.00 | COC(=O)N[C@@H]1COc2c(-c3[nH]c4ncccc4c3-c3cccnc3OC(F)F)c(C)nn2C1 [EX. 513]
8 | > 8.00 | C[C@@H](O)CC(=O)N[C@@H]1COc2c(-c3[nH]c4ncccc4c3-c3cn(C)nc3OC(F)F)c(C(F)F)nn2C1 [EX. 555]
9 | > 8.00 | COC(=O)N[C@]1(C)COc2c(-c3[nH]c4ncccc4c3-c3cccnc3OC(F)F)c(C(F)F)nn2C1 [EX. 492]
10 | > 8.00 | N#Cc1ccccc1-c1c(-c2c[nH]nc2OC(F)F)[nH]c2ncccc12 [EX. 157]
11 | > 8.00 | COC(=O)N[C@@H]1COc2c(-c3[nH]c4ncccc4c3-c3cn(C)nc3C#N)c(C(F)F)nn2C1 [EX. 517]
12 | > 8.00 | Cn1cc(-c2c(-c3c(C4CC4)nn4c3OC[C@@H](NS(C)(=O)=O)C4)[nH]c3ncccc23)c(OC(F)F)n1 [EX. 484]
13 | > 8.00 | CO[C@]1(C)COc2c(-c3[nH]c4ncccc4c3-c3cccnc3OC(F)F)c(C(F)F)nn2C1 [EX. 439]
14 | > 8.00 | [2H]c1cnc2[nH]c(-c3c(C)nn4c3OCCC4)c(-c3cc(OC([2H])([2H])[2H])ccc3C#N)c2c1 [EX. 216]
15 | > 8.00 | COC(=O)N[C@@H]1COc2c(-c3[nH]c4ncccc4c3-c3cc(C)sc3C#N)c(C)nn2C1 [EX. 494]
16 | > 8.00 | [2H]C([2H])([2H])Oc1ccc(C#N)c(-c2c(-c3c(C)nn4c3OC(C)C4)[nH]c3ncccc23)c1 (centres unmarked) [EX. 167]
17 | > 8.00 | COc1ccc(C#N)c(-c2c(-c3c(C)nn4c3OCC(NC(C)=O)C4)[nH]c3ncccc23)c1 (centres unmarked) [EX. 354, N-[3-[3-(2-cyano-5-methoxy-phenyl)-1H-pyrrolo[2,3-b]pyridin-2-yl]-2-methyl-6,7-dihydro-5H-pyrazolo[5,1-b] [1,3]oxazin-6-yl]acetamide]
18 | > 8.00 | CN(C)S(=O)(=O)N[C@@H]1COc2c(-c3[nH]c4ncccc4c3-c3cn(C)nc3OC(F)F)c(C(F)F)nn2C1 [EX. 576]
19 | > 8.00 | COc1ccc(C#N)c(-c2c(-c3c[nH]nc3C(F)(F)F)[nH]c3ncccc23)c1 [EX. 80]
20 | > 8.00 | COc1ccc(C#N)c(-c2c(-c3c(C)nn4c3OCCC4)[nH]c3ncccc23)c1 [EX. 227]
21 | > 8.00 | CCc1nn2c(c1-c1[nH]c3ncccc3c1-c1cn(C)nc1OC(F)F)OC[C@@H](NC(=O)OC)C2 [EX. 572]
22 | > 8.00 | COc1ccccc1-c1[nH]c2ncccc2c1-c1ccccc1C#N [EX. 307]
23 | > 8.00 | COc1ccc(C#N)c(-c2c(-c3cn(C)nc3C(F)F)[nH]c3ncccc23)c1 [EX. 113]
24 | > 8.00 | N#Cc1ccccc1-c1c(-c2n[nH]cc2C(F)(F)F)[nH]c2ncccc12 [EX. 264]
25 | > 8.00 | Cn1cc(-c2c(-c3c(C(F)F)nn4c3OC[C@@H](N3CCCS3(=O)=O)C4)[nH]c3ncccc23)c(OC(F)F)n1 [EX. 580]
26 | > 8.00 | Cn1cc(-c2c(-c3c(C(F)F)nn4c3OC[C@@](C)(O)C4)[nH]c3ncccc23)c(OC(F)F)n1 [EX. 481]
27 | > 8.00 | COc1ccc(C#N)c(-c2c(-c3c(C)nn4c3OCC(NC(=O)OC(C)(C)C)C4)[nH]c3ncccc23)c1 (centres unmarked) [EX. 256]
28 | > 8.00 | N#Cc1ccccc1-c1c(-c2c[nH]nc2C(F)(F)F)[nH]c2nccc(F)c12 [EX. 77]
29 | > 8.00 | Cn1cc(-c2c(-c3c(C4CC4)nn4c3OCCC4)[nH]c3ncccc23)c(OC(F)F)n1 [EX. 420]
30 | > 8.00 | COc1ccc(C#N)c(-c2c(-c3c(C)nn4cc(F)cnc34)[nH]c3ncccc23)c1 [EX. 182]
31 | > 8.00 | COC(=O)N[C@@H]1COc2c(-c3[nH]c4ncccc4c3-c3cn(C)nc3OC(F)F)c(C3CC3)nn2C1 [EX. 483]

Row | pIC50 | SMILES
32 | > 8.00 | C[C@@H](O)COC(=O)N[C@@H]1COc2c(-c3[nH]c4ncccc4c3-c3cn(C)nc3OC(F)F)c(C(F)F)nn2C1 [EX. 568]
33 | > 8.00 | Cc1cc(-c2c(-c3c(C4CC4)nn4c3OC[C@@H](O)C4)[nH]c3ncccc23)c(C#N)s1 [EX. 460]
34 | > 8.00 | N#Cc1nscc1-c1c(-c2c(C(F)F)nn3c2OCCC3)[nH]c2ncccc12 [EX. 403]
35 | > 8.00 | Cn1cc(-c2c(-c3c(C(F)F)nn4c3OC[C@@H](NC(=O)[C@H]3C[C@@](C)(O)C3)C4)[nH]c3ncccc23)c(OC(F)F)n1 [EX. 563]
36 | > 8.00 | [2H]C([2H])([2H])n1cc(-c2[nH]c3ncccc3c2-c2cc(OC)ccc2C#N)c(C(F)F)n1 [EX. 377]
37 | > 8.00 | FC(F)Oc1cnccc1-c1c(-c2c(C(F)F)nn3c2OCCC3)[nH]c2ncccc12 [EX. 489]
38 | > 8.00 | COCCO[C@@H]1COc2c(-c3[nH]c4ncccc4c3-c3cn(C)nc3OC(F)F)c(C(F)F)nn2C1 [EX. 533]
39 | 6.00 to 7.00 | COc1ccc(F)cc1-c1[nH]c2ncccc2c1-c1cn(C)nc1C(F)F [EX. 292]
40 | > 8.00 | CC(=O)NCCO[C@@H]1COc2c(-c3[nH]c4ncccc4c3-c3cn(C)nc3OC(F)F)c(C(F)F)nn2C1 [EX. 537]
41 | > 8.00 | O[C@@H]1COc2c(-c3[nH]c4ncccc4c3-c3ccc(F)cc3OC(F)F)c(C(F)F)nn2C1 [EX. 467]
42 | > 8.00 | N#Cc1cnccc1-c1c(-c2c(C(F)F)nn3c2OCCC3)[nH]c2ncccc12 [EX. 408]
43 | > 8.00 | CO[C@@H]1COc2c(-c3[nH]c4ncccc4c3-c3cccnc3OC(F)F)c(C)nn2C1 [EX. 497]
44 | > 8.00 | Cn1cc(-c2c(-c3c(C(F)F)nn4c3OC[C@@H](F)C4)[nH]c3ncccc23)c(C#N)n1 [EX. 449]
45 | > 8.00 | FC(F)Oc1nscc1-c1c(-c2c(C(F)F)nn3c2OCCC3)[nH]c2ncccc12 [EX. 402]
46 | > 8.00 | COc1ccc(C#N)c(-c2c(-c3c(C(F)F)nn4c3OCC(NC(=O)OC(C)(C)C)C4)[nH]c3ncccc23)c1 (centres unmarked) [EX. 257]
47 | > 8.00 | O[C@@H]1COc2c(-c3[nH]c4ncccc4c3-c3ccccc3OC(F)F)c(C(F)F)nn2C1 [EX. 469]
48 | > 8.00 | Cn1cc(-c2c(-c3c(C(F)F)nn4c3OC[C@@H](NS(=O)(=O)CCO)C4)[nH]c3ncccc23)c(OC(F)F)n1 [EX. 577]
49 | > 8.00 | N#Cc1ccccc1-c1c(-c2cnn3c2OCCC3)[nH]c2ncccc12 [EX. 50]
50 | > 8.00 | CO[C@]1(C)COc2c(-c3[nH]c4ncccc4c3-c3cn(C)nc3OC(F)F)c(C(F)F)nn2C1 [EX. 435]
51 | > 8.00 | COc1ccc(C#N)c(-c2c(-c3c(C(F)F)nn4c3OCC4)[nH]c3ncccc23)c1 [EX. 243]
52 | > 8.00 | Cn1cc(-c2[nH]c3ncccc3c2-c2ccccc2C#N)c(C(F)F)n1 [EX. 146]
53 | > 8.00 | COC(=O)N[C@@H]1COc2c(-c3[nH]c4ncccc4c3-c3cn(C)nc3OC(F)F)c(C)nn2C1 [EX. 546]
54 | > 8.00 | CO[C@@H]1COc2c(-c3[nH]c4ncccc4c3-c3cn(C)nc3OC(F)F)c(C(F)F)nn2C1 [EX. 531]
55 | > 8.00 | [2H]C([2H])([2H])Oc1ccc(C#N)c(-c2c(-c3c(C)nn4c3OC[C@@H](O)C4)[nH]c3ncccc23)c1 [EX. 366, 2-[2-[(6S)-6-hydroxy-2-methyl-6,7-dihydro-5H-pyrazolo[5,1-b] [1,3]oxazin-3-yl]-1H-pyrrolo[2,3-b]pyridin-3-yl]-4-(trideuteriomethoxy)benzonitrile]
56 | > 8.00 | N#Cc1ccccc1-c1c(-c2c[nH]nc2C(F)F)[nH]c2ncccc12 [EX. 71]
